Experimental data taken from article PMC9569420 (Communications Biology, 2022).
Values joined by “and” are separate entries in the source; they are usually repeats but may differ in a detail not shown here. Identical values can stand only once.

Key:
GRK1 = target: T1, GRK1 (Homo sapiens, UniProt Q15835); assay: HotSpot kinase assay; assay type: biochemical; details: read-out: % Enzyme Activity (relative to DMSO controls)
T1 construct: purchased Reaction Biology Corporation

ALK = target: T2, ALK (Homo sapiens, UniProt Q9UM73); assay: HotSpot kinase assay; assay type: biochemical; details: read-out: % Enzyme Activity (relative to DMSO controls)
T2 construct: purchased Reaction Biology Corporation

PKA = target: T3, PKA (Homo sapiens, UniProt P17612); assay: HotSpot kinase assay; assay type: biochemical
T3 construct: purchased Reaction Biology Corporation

BRAF = target: T4, BRAF (Homo sapiens, UniProt P15056); assay: HotSpot kinase assay; assay type: biochemical; details: read-out: % Enzyme Activity (relative to DMSO controls)
T4 construct: purchased Reaction Biology Corporation

MLK1/MAP3K9 = target: T5, MLK1/MAP3K9 (Homo sapiens, UniProt P80192); assay: HotSpot kinase assay; assay type: biochemical; details: read-out: % Enzyme Activity (relative to DMSO controls)
T5 construct: purchased Reaction Biology Corporation

ABL1 = target: T6, ABL1 (Homo sapiens, UniProt P00519); assay: biochemical
T6 construct: purchased Reaction Biology Corporation
T6 sequence (P00519 whole entry): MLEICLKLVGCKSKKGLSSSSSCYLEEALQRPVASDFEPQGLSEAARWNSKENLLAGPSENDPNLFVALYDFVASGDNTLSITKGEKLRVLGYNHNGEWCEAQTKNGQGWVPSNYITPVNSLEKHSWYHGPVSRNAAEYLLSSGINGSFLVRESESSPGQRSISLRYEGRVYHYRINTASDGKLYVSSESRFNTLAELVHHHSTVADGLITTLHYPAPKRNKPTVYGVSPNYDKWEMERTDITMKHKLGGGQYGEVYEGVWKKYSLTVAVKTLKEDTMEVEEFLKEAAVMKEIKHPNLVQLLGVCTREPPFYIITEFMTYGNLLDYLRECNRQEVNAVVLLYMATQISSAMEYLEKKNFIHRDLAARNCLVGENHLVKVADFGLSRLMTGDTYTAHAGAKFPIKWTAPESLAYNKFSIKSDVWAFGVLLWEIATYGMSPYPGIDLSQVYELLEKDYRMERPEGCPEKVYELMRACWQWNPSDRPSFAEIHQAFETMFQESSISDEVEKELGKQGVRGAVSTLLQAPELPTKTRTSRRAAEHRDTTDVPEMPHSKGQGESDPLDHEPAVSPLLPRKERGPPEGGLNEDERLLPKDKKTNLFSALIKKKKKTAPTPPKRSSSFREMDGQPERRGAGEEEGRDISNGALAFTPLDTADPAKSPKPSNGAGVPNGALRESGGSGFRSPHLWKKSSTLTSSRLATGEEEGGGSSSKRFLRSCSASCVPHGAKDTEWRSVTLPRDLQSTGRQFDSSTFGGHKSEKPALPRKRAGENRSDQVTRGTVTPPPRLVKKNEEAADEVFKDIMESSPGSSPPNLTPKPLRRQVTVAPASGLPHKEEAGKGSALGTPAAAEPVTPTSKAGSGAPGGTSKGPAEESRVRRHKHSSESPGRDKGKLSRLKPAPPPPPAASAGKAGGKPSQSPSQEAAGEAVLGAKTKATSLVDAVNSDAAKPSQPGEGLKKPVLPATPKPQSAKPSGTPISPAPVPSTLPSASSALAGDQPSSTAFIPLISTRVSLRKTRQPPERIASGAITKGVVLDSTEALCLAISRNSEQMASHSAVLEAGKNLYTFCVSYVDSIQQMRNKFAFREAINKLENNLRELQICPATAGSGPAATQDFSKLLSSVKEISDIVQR

ERK7/MAPK15 = target: T7, ERK7/MAPK15 (Homo sapiens, UniProt Q8TD08); assay: HotSpot kinase assay; assay type: biochemical; details: read-out: % Enzyme Activity (relative to DMSO controls)
T7 construct: purchased Reaction Biology Corporation

LKB1 = target: T8, LKB1 (Homo sapiens, UniProt Q15831); assay: HotSpot kinase assay; assay type: biochemical; details: read-out: % Enzyme Activity (relative to DMSO controls)
T8 construct: purchased Reaction Biology Corporation

HIPK2 = target: T9, HIPK2 (Homo sapiens, UniProt Q9H2X6); assay: HotSpot kinase assay; assay type: biochemical; details: read-out: % Enzyme Activity (relative to DMSO controls)
T9 construct: purchased Reaction Biology Corporation
T9 sequence (Q9H2X6 whole entry): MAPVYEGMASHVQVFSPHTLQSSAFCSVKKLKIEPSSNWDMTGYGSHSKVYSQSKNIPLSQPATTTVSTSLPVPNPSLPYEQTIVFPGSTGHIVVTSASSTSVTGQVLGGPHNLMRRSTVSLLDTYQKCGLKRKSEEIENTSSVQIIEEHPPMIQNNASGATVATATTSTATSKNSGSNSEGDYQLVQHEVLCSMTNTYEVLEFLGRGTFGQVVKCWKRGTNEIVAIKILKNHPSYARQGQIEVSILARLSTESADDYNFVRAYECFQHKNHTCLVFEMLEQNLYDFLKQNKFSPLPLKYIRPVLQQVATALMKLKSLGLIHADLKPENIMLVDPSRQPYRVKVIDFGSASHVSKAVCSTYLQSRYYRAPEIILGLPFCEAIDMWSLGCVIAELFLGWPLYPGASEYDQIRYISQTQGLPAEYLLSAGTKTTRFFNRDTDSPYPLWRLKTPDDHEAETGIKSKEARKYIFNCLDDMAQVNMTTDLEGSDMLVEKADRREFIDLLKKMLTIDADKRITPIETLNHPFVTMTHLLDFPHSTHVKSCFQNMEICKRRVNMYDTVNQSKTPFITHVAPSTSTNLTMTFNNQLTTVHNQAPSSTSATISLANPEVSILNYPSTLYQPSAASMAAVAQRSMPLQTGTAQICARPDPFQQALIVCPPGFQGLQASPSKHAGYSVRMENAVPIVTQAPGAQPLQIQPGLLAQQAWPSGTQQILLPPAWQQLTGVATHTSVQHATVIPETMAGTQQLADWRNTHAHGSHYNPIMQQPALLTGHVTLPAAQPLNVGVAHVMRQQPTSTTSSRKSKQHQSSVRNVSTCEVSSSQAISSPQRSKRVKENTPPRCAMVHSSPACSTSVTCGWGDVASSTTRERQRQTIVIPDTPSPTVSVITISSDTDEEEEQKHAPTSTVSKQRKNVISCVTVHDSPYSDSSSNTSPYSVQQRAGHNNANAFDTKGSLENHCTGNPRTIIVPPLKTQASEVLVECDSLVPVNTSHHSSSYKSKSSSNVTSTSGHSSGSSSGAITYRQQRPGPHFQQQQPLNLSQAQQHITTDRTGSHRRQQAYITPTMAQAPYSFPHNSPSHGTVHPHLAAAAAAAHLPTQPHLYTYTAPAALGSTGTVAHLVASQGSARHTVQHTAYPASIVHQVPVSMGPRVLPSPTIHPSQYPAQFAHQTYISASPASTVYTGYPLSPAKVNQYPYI

DCAMKL1 = target: T10, DCAMKL1 (Homo sapiens, UniProt O15075); assay: HotSpot kinase assay; assay type: biochemical; details: read-out: % Enzyme Activity (relative to DMSO controls)
T10 construct: purchased Reaction Biology Corporation

CDK18/cyclin Y (PCTK3) = target: T11, CDK18/cyclin Y (PCTK3) (Homo sapiens, UniProt Q07002); assay: HotSpot kinase assay; assay type: biochemical; details: read-out: % Enzyme Activity (relative to DMSO controls)
T11 construct: purchased Reaction Biology Corporation

PLSCR1 = PLSCR1 phosphorylation (IP/western), HSV-2 infected HaCaT cells; assay type: cell-based, human; details: 10 μM, 30 min
p70S6Kb/RPS6KB2 = target: T12, p70S6Kb/RPS6KB2 (Homo sapiens, UniProt Q9UBS0); assay: HotSpot kinase assay; assay type: biochemical; details: read-out: % Enzyme Activity (relative to DMSO controls)
T12 construct: purchased Reaction Biology Corporation
T12 sequence (Q9UBS0 whole entry): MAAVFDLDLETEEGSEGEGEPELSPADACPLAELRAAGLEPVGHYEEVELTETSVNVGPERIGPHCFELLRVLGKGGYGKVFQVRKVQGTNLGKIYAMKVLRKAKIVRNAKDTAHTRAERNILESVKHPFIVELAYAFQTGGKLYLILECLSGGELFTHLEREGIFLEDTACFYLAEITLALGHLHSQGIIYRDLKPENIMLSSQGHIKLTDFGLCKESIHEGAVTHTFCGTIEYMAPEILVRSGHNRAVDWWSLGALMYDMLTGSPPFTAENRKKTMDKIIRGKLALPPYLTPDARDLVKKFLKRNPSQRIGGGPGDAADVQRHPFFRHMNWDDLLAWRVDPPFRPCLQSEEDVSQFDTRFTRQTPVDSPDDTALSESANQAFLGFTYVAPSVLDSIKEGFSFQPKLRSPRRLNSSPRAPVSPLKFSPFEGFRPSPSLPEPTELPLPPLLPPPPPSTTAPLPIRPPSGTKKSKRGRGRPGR

DDR1 = target: T13, DDR1 (Homo sapiens, UniProt Q08345); assay: HotSpot kinase assay; assay type: biochemical; details: read-out: % Enzyme Activity (relative to DMSO controls)
T13 construct: purchased Reaction Biology Corporation

PKN2/PRK2 = target: T14, PKN2/PRK2 (Homo sapiens, UniProt Q16513); assay: HotSpot kinase assay; assay type: biochemical; details: read-out: % Enzyme Activity (relative to DMSO controls)
T14 construct: purchased Reaction Biology Corporation

TRKB = target: T15, TRKB (Homo sapiens, UniProt Q16620); assay: HotSpot kinase assay; assay type: biochemical; details: read-out: % Enzyme Activity (relative to DMSO controls)
T15 construct: purchased Reaction Biology Corporation

MYLK4 = target: T16, MYLK4 (Homo sapiens, UniProt Q86YV6); assay: HotSpot kinase assay; assay type: biochemical; details: read-out: % Enzyme Activity (relative to DMSO controls)
T16 construct: purchased Reaction Biology Corporation

DCAMKL2 = target: T17, DCAMKL2 (Homo sapiens, UniProt Q8N568); assay: HotSpot kinase assay; assay type: biochemical; details: read-out: % Enzyme Activity (relative to DMSO controls)
T17 construct: purchased Reaction Biology Corporation

OSR1/OXSR1 = target: T18, OSR1/OXSR1 (Homo sapiens, UniProt O95747); assay: HotSpot kinase assay; assay type: biochemical; details: read-out: % Enzyme Activity (relative to DMSO controls)
T18 construct: purchased Reaction Biology Corporation

NEK9 = target: T19, NEK9 (Homo sapiens, UniProt Q8TD19); assay: HotSpot kinase assay; assay type: biochemical; details: read-out: % Enzyme Activity (relative to DMSO controls)
T19 construct: purchased Reaction Biology Corporation
T19 sequence (Q8TD19 whole entry): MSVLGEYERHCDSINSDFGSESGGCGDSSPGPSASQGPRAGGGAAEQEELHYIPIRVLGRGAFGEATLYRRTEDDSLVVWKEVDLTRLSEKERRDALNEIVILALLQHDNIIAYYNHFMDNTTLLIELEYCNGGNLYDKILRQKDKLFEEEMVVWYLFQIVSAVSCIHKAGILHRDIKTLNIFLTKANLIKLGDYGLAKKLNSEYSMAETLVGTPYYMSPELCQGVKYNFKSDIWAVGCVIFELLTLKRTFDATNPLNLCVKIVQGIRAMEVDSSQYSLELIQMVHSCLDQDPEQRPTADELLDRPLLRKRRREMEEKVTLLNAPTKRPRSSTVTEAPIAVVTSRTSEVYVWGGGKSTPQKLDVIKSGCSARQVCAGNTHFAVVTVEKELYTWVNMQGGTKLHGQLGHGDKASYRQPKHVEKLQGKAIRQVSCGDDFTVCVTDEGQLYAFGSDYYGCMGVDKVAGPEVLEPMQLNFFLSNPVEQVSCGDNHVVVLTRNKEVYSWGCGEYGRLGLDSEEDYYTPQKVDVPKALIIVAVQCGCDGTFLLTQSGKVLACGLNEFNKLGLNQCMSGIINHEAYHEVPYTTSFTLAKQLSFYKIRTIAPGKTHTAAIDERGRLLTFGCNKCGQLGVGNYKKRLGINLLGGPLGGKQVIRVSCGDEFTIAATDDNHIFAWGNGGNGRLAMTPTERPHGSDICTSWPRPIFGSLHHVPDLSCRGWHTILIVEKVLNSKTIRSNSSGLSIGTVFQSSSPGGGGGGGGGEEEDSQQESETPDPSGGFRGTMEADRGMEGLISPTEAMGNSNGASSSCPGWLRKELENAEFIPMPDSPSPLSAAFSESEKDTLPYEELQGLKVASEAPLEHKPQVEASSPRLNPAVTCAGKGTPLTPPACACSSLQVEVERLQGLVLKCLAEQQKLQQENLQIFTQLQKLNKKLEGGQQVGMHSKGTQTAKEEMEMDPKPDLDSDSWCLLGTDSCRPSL

CDK5/P25 = target: T20, CDK5/P25 (Homo sapiens, UniProt Q00535); assay: HotSpot kinase assay; assay type: biochemical; details: read-out: % Enzyme Activity (relative to DMSO controls)
T20 construct: purchased Reaction Biology Corporation

SNARK/NUAK2 = target: T21, SNARK/NUAK2 (Homo sapiens, UniProt Q9H093); assay: HotSpot kinase assay; assay type: biochemical; details: read-out: % Enzyme Activity (relative to DMSO controls)
T21 construct: purchased Reaction Biology Corporation

Haspin = target: T22, Haspin (Homo sapiens, UniProt Q8TF76); assay: HotSpot kinase assay; assay type: biochemical; details: read-out: % Enzyme Activity (relative to DMSO controls)
T22 construct: purchased Reaction Biology Corporation
T22 sequence (Q8TF76 whole entry): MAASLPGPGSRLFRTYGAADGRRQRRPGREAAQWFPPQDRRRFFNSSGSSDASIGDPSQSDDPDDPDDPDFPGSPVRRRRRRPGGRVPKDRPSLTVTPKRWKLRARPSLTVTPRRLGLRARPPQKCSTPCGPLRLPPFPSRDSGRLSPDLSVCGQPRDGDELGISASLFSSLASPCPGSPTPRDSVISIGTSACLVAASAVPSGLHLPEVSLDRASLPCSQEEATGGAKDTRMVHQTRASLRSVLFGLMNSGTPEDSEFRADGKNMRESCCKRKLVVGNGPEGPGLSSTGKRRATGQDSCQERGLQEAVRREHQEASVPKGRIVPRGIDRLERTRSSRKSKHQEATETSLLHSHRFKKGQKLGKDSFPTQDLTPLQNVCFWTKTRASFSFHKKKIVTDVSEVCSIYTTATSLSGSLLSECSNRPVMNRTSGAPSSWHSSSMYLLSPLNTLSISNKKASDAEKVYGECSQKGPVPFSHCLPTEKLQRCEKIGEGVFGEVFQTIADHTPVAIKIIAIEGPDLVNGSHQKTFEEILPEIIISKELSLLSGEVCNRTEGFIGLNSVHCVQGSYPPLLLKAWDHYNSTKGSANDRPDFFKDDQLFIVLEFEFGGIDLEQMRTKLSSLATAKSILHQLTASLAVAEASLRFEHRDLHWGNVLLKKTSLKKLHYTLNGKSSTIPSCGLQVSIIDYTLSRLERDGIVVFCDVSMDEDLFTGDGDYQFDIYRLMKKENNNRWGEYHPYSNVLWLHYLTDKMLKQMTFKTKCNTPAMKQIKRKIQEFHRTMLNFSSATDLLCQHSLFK

PKCnu/PRKD3 = target: T23, PKCnu/PRKD3 (Homo sapiens, UniProt O94806); assay: HotSpot kinase assay; assay type: biochemical; details: read-out: % Enzyme Activity (relative to DMSO controls)
T23 construct: purchased Reaction Biology Corporation

MLCK/MYLK = target: T24, MLCK/MYLK (Homo sapiens, UniProt Q15746); assay: HotSpot kinase assay; assay type: biochemical; details: read-out: % Enzyme Activity (relative to DMSO controls)
T24 construct: purchased Reaction Biology Corporation

P38g = target: T25, P38g (Homo sapiens, UniProt P53778); assay: HotSpot kinase assay; assay type: biochemical; details: read-out: % Enzyme Activity (relative to DMSO controls)
T25 construct: purchased Reaction Biology Corporation

PKN1/PRK1 = target: T26, PKN1/PRK1 (Homo sapiens, UniProt Q16512); assay: HotSpot kinase assay; assay type: biochemical; details: read-out: % Enzyme Activity (relative to DMSO controls)
T26 construct: purchased Reaction Biology Corporation

CTK/MATK = target: T27, CTK/MATK (Homo sapiens, UniProt P42679); assay: HotSpot kinase assay; assay type: biochemical; details: read-out: % Enzyme Activity (relative to DMSO controls)
T27 construct: purchased Reaction Biology Corporation

TEC = target: T28, TEC (Homo sapiens, UniProt P42680); assay: HotSpot kinase assay; assay type: biochemical; details: read-out: % Enzyme Activity (relative to DMSO controls)
T28 construct: purchased Reaction Biology Corporation

EPHA3 = target: T29, EPHA3 (Homo sapiens, UniProt P29320); assay: HotSpot kinase assay; assay type: biochemical; details: read-out: % Enzyme Activity (relative to DMSO controls)
T29 construct: purchased Reaction Biology Corporation

MKK7 = target: T30, MKK7 (Homo sapiens, UniProt O14733); assay: HotSpot kinase assay; assay type: biochemical; details: read-out: % Enzyme Activity (relative to DMSO controls)
T30 construct: purchased Reaction Biology Corporation
T30 sequence (O14733 whole entry): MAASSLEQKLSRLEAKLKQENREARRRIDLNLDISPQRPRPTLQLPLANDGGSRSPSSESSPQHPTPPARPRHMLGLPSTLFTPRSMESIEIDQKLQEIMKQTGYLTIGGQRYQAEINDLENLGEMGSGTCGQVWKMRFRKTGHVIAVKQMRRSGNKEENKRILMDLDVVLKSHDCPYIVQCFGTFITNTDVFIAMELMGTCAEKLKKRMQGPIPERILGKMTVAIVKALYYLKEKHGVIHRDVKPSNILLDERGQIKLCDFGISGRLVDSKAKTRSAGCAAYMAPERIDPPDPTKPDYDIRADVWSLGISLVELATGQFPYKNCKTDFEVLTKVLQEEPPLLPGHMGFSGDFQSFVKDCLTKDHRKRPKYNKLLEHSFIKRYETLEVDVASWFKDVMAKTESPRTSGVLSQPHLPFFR

[1] = tested on: Akt (pAkt T308) in HaCat cells; assay: Akt phosphorylation in response to insulin (confocal); assay type: cell-based, human; details: insulin 10 μM, CIMSS 10 or 100 µM
HSV-2(G) = assay: synchronized infection (entry) assay, CaSki; assay type: cell-based
Protocol: To quantify viral entry, cells were synchronously infected by allowing virus to bind to cells at 4°C for 4 h, washed, and then transferred to 37 °C. CIMSS or control DMSO was added at the time of temperature shift. At indicated times post-temperature shift, the cells were treated with a low pH buffer to inactivate virus that had not penetrated, washed, overlaid with medium containing methyl cellulose and viral plaques were counted at 48 h. Entry was also assessed by immunoblotting nuclear extracts for VP16. […] Nuclear extracts were prepared after 1 h and analyzed by western blot with antibodies targeting VP16, histone H1 and golgin-97[5]. The non-nuclear fraction was also probed for golgin-97 as a positive control. […] After 1 or 4 h of incubation, the cells were fixed. Plasma membranes were stained using Image -IT^TM LIVE Plasma Membrane kit and nuclei were stained with DAPI (Thermo Fisher Scientific, Cat 134406). The percentage of GFP + nuclei was determined by counting ~200 cells over 3–4 fields. Images were obtained with Leica SP8 microscope (objective 63 × 1.4); xz images were captured with optical slice 0.6 µm, 25–30 slices per image.

ERN2/IRE2 = target: T31, ERN2/IRE2 (Homo sapiens, UniProt Q76MJ5); assay: HotSpot kinase assay; assay type: biochemical; details: read-out: % Enzyme Activity (relative to DMSO controls)
T31 construct: purchased Reaction Biology Corporation

VSV-S = assay type: cell-based, VSV pseudotyped with SARS-CoV-2 spike
[2] = Supplementary Table 1, read-out: IC50 (Molar concentration)
[3] = read-out: % Enzyme Activity (relative to DMSO controls), 10µM

CO[C@@H]1[C@H](N(C)C(=O)CCC(=O)NCc2cn(CCCS(=O)(=O)O)nn2)C[C@H]2O[C@]1(C)n1c3ccccc3c3c4c(c5c6ccccc6n2c5c31)C(=O)NC4 [CIMSS]
remaining activity at 10 µM (GRK1): 4.7%
remaining activity at 10 µM (ALK): 4.12%
IC50 (PKA; [2]): 42.3 nM
remaining activity at 10 µM (PKA; [3]): 6.32%
remaining activity at 10 µM (BRAF): 132%
remaining activity at 10 µM (MLK1/MAP3K9): 4.06%
IC50 (ABL1; [2]): 143 nM
remaining activity at 10 µM (ABL1; [3]): 5.18%
remaining activity at 10 µM (ERK7/MAPK15): 27.9%
remaining activity at 10 µM (LKB1): 38%
remaining activity at 10 µM (HIPK2): 17.5%
remaining activity at 10 µM (DCAMKL1): 83.7%
remaining activity at 10 µM (CDK18/cyclin Y (PCTK3)): 41.3%
Phosphorylation of PLSCR1 (PLSCR1): not
remaining activity at 10 µM (p70S6Kb/RPS6KB2): 3.38%
remaining activity at 10 µM (DDR1): 0.98%
remaining activity at 10 µM (PKN2/PRK2): 6.62%
remaining activity at 10 µM (TRKB): 1.79%
remaining activity at 10 µM (MYLK4): 6.48%
remaining activity at 10 µM (DCAMKL2): 87.7%
remaining activity at 10 µM (OSR1/OXSR1): 54.2%
remaining activity at 10 µM (NEK9): 2.81%
remaining activity at 10 µM (CDK5/P25): 7.17%
remaining activity at 10 µM (SNARK/NUAK2): 2.16%
remaining activity at 10 µM (Haspin): 49.5%
remaining activity at 10 µM (PKCnu/PRKD3): 11.4%
remaining activity at 10 µM (MLCK/MYLK): 15.5%
remaining activity at 10 µM (P38g): 30.3%
remaining activity at 10 µM (PKN1/PRK1): 2.22%
remaining activity at 10 µM (CTK/MATK): 24.6%
remaining activity at 10 µM (TEC): 19.9%
remaining activity at 10 µM (EPHA3): 37.9%
remaining activity at 10 µM (MKK7): 96.2%
block of Akt phosphorylation in response to insulin [1]: did not block
plaques counted at 48 h (HSV-2(G); 0.5 h post-temperature shift (Fig 3b source data)): 49 and 51
plaques counted at 48 h (HSV-2(G); 1 h): 48 and 46
plaques counted at 48 h (HSV-2(G); 2 h): 52 and 37
remaining activity at 10 µM (ERN2/IRE2): 6.47%
VSV-S infection (VSV-S): inhibited
